Measurements as given in patent US7407960B2, “Substituted heterocyclic compounds” (CV Therapeutics, Inc., priority 2002, dated 2008).

Tested on: Palmitoyl CoA oxidation
Assay: Palmitoyl CoA oxidation in isolated rat heart mitochondria
Type: biochemical
Settings: 1-C14 palmitoyl CoA, 15 min at 30° C., read-out: PalmCoA IC50
Method: Rat heart mitochondria were isolated by the method of Nedergard and Cannon (Methods in Enzymol. 55, 3, 1979).
Palmitoyl CoA oxidation—The Palmityl CoA oxidation was carried out in a total volume of 100 micro liters containing the following agents: 110 mM KCl, 33 mM Tris buffer at pH 8, 2 mM KPi, 2 mM MgCl2, 0.1 mM EDTA, 14.7 microM defatted BSA, 0.5 mM malic acid, 13 mM carnitine, 1 mM ADP, 52 micrograms of mitochondrial protein, and 16 microM 1-C14 palmitoyl CoA (Sp. Activity 60 mCi/mmole; 20 microCi/ml, using 5 microliters per assay). The compounds of this invention were added in a DMSO solution at the following concentrations: 100 micro molar, 30 micro molar, and 3 micro molar. In each assay, a DMSO control was used. After 15 min at 30° C., the enzymatic reaction was centrifuged (20,000 g for 1 min), and 70 microliters of the supernatant was added to an activated reverse phase silicic acid column (approximately 0.5 ml of silicic acid). The column was eluted with 2 ml of water, and 0.5 ml of the eluent was used for scintillation counting to determine the amount of C^14 trapped as C^14 bicarbonate ion.

Work on `Cc1nc2cc(OC[C@H](O)CN3CCN(CC(=O)Nc4cccc5c4CCC5)CC3)ccc2s1` [2-{4-[(2R)-2-hydroxy-3-(2-methylbenzothiazol-5-yloxy)propyl]piperazinyl}-N-indan-4-ylacetamide] yielded an IC50 of 150 nM.
